Measured values published in patent US11534404B2, “Multilayer beads for pharmaceutical use” (Sucampo AG, priority 2016, dated 2022).

Experiments:
Format in all cases: physicochemical
[1] = Lubiprostone-excipient contact stability study, mechanical mixing of powder (Example 1C); conditions: for % of the initial: 55° C. 10 d, remaining lubiprostone by HPLC
Method: Test samples were prepared by direct (mechanical) mixing of various excipients and lubiprostone drug in approximately 50:50 and 99:1 ratios. The mechanical mixing of lubiprostone and excipients was conduct by admixing them using a conventional mortar. The prepared mixtures were then placed under accelerated stress stability conditions at 55° C. for 10 days. After 10 days, these samples were analyzed by HPLC to determine the amount of remaining lubiprostone and impurities generated as a result of the degradation of lubiprostone.

[2] = Lubiprostone-excipient contact stability study, solid solution (Example 1B); conditions: for % of the initial: 55° C. 10 d, remaining lubiprostone by HPLC
Method: Additional test samples were prepared for the study by admixing various excipients and lubiprostone drug in ratios of about 50:50 and about 99:1. Solid solutions were prepared by mixing lubiprostone/MeCN and Excipient/MeCN, combining these mixtures and then removing the solvent by evaporation. The prepared mixtures were then placed under accelerated stress stability conditions at 55° C. for 10 days. After 10 days, these samples were analyzed by HPLC method to determine the amount of remaining lubiprostone and impurities generated as a result of the degradation of lubiprostone.

[3] = Lubiprostone-excipient contact stability study (Example 1A); conditions: excipient:lubiprostone approx 50:50; 55° C. 10 days; HPLC
Method: Test samples were prepared for the study in approximately 50:50 proportion using various excipients and lubiprostone drug. These prepared mixtures were then placed on accelerated stress stability conditions at 55° C. for 10 days. After 10 days, these samples were analyzed by a suitable HPLC method to determine assay (the amount of remaining Lubiprostone) and impurities generated due to degradation of lubiprostone.

[4] = Mechanical mixing of powder 50:50
[5] = Mechanical mixing of powder 99:1

Structure (SMILES): CCCCC(F)(F)[C@@]1(O)CC[C@H]2[C@@H](CC(=O)[C@@H]2CCCCCCC(=O)O)O1 [Lubiprostone, (−)-7-[(2R,4aR,5R,7aR)-2-(1,1-difluoropentyl)-2-hydroxy-6-oxooctahydrocyclopenta[b]pyran-5-yl]heptanoic acid]
- 55° C. 10 d Impurities [1, 4]: 24.5
- % of the initial [1, 4]: 55.6%
- 55° C. 10 d Impurities [1, 5]: 24.5
- % of the initial [1, 5]: 55.6%
- 55° C. 10 d Impurities ([2]; Solid solution 50:50): 33.5
- % of the initial ([2]; Solid solution 50:50): 44.4%
- 55° C. 10 d Impurities ([2]; Solid solution 99:1): 35.5
- % of the initial ([2]; Solid solution 99:1): 44.4%
- Assay (% of initial) [3]: 42.3%
- Total Impurities [3]: 59.0%
